From patent publication US9512107B2, “Therapeutically active compositions and their methods of use” (Agios Pharmaceuticals, Inc., priority 2012, dated 2016)
Positions count from the first letter of the chain named. Read-outs that look alike come from different tables or passages of the source.

Legend:
[1] = molecular target: T1, IDH2 R172K (Homo sapiens, UniProt P48735, R172K); assay: IDH2 R172K enzymatic assay (NADPH cofactor depletion, diaphorase/resazurin readout); format: biochemical; conditions: read-out: Enz R172K
T1 sequence (P48735 40-452 R172K): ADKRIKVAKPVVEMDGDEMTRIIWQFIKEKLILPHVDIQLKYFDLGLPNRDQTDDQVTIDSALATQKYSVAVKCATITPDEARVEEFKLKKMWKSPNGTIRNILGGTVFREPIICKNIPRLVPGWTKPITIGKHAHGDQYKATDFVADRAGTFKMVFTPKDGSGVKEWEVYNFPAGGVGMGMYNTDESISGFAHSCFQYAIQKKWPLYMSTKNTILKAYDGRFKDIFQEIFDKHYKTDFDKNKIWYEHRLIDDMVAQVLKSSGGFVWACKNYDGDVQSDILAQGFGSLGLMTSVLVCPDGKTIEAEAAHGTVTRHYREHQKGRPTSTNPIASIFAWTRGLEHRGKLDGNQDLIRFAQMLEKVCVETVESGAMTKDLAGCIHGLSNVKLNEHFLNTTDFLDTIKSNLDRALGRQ
Method in brief: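 Test compounds are incubated with the mutant enzyme for one hour at ambient temperature. A substrate mix of 50 μM NADPH plus 6.3 mM α-KG initiates turnover, which proceeds for one hour. Diaphorase and resazurin then halt the reaction by depleting the cofactor and convert the remaining NADPH into a fluorescent signal.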

[2] = tested on: U87MG pLVX-IDH2 R140Q-neo cells; assay: U87MG pLVX-IDH2 R140Q-neo cell based assay, 2-HG in media by LC-MS at 48 hours
Method in brief: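 U87MG cells stably expressing IDH2 R140Q were seeded overnight, then exposed to compound at 0.2% final DMSO at 37 °C, 5% CO2. 2-HG in the medium was quantified by LC-MS at 48 h. Growth inhibition was read by CellTiter-Glo luminescence at 72 h.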

[3] = molecular target: T2, IDH2 R140Q (Homo sapiens, UniProt P48735, R140Q); assay: IDH2 R140Q enzymatic assay (cofactor depletion, similar format); format: biochemical; conditions: read-out: Enz R140Q
T2 sequence (P48735 40-452 R140Q): T1 sequence (P48735 40-452 R172K) with R101Q, K133R

Compound `CC(C)Nc1nc(Nc2ccnc(F)c2)nc(-c2nccc(C(F)(F)F)n2)n1` [Compound 538] has an IC50 [1] of 100 to 1000 nM, an IC50 [2] of less than 100 nM and an IC50 [3] of 1000 to 10000 nM.
`OC1(CNc2nc(Nc3cc(F)cc(F)c3)nc(-c3cccc(C(F)(F)F)n3)n2)CC1` [Compound 541, 1-{[4-(3,5-Difluoro-phenylamino)-6-(6-trifluoromethyl-pyridin-2-yl)-[1,3,5]triazin-2-ylamino]-methyl}-cyclopropanol] gave an IC50 [1] of 100 to 1000 nM, an IC50 ([2]; Homo sapiens, U-87 MG) of less than 100 nM and an IC50 [3] of 100 to 1000 nM.
`CC(C)Nc1nc(Nc2cccc(C(C)(C)O)c2)nc(-c2cccc(C(F)(F)F)n2)n1` [Compound 542, 2-{3-[4-Isopropylamino-6-(6-trifluoromethyl-pyridin-2-yl)-[1,3,5]triazin-2-ylamino]-phenyl}-propan-2-ol] gave an IC50 [1] of less than 100 nM, an IC50 ([2]; Homo sapiens, U-87 MG) of less than 100 nM and an IC50 [3] of 100 to 1000 nM.
With `Cn1cc(Nc2nc(Nc3ccnc(C(F)(F)F)c3)nc(-c3cccc(C(F)(F)F)n3)n2)cn1` [Compound 543, N-(1-Methyl-1H-pyrazol-4-yl)-6-(6-trifluoromethyl-pyridin-2-yl)-N′-(2-trifluoromethyl-pyridin-4-yl)-[1,3,5]triazine-2,4-diamine] the IC50 [1] was 100 to 1000 nM, the IC50 ([2]; Homo sapiens, U-87 MG) was less than 100 nM and the IC50 [3] was 100 to 1000 nM.
`Cn1nccc1Nc1nc(Nc2ccnc(C(F)(F)F)c2)nc(-c2cccc(C(F)(F)F)n2)n1` [Compound 544, N-(2-Methyl-2H-pyrazol-3-yl)-6-(6-trifluoromethyl-pyridin-2-yl)-N′-(2-trifluoromethyl-pyridin-4-yl)-[1,3,5]triazine-2,4-diamine] showed an IC50 [1] of 100 to 1000 nM, an IC50 ([2]; Homo sapiens, U-87 MG) of less than 100 nM and an IC50 [3] of 100 to 1000 nM.
`FC(F)(F)c1cc(Nc2nc(Nc3cncs3)nc(-c3cccc(C(F)(F)F)n3)n2)ccn1` [Compound 546, N2-(thiazol-5-yl)-6-(6-(trifluoromethyl)pyridin-2-yl)-N4-(2-(trifluoromethyl)pyridin-4-yl)-1,3,5-triazine-2,4-diamine] gave an IC50 [1] of 100 to 1000 nM, an IC50 ([2]; Homo sapiens, U-87 MG) of less than 100 nM and an IC50 [3] of 100 to 1000 nM.
Compound `FC(F)(F)c1cc(Nc2nc(NCC3CCOC3)nc(-c3cccc(C(F)(F)F)n3)n2)ccn1` (stereo not drawn) [Compound 547, N-(Tetrahydro-furan-3-ylmethyl)-N′-(2-trifluoromethyl-pyridin-4-yl)-6-(6-trifluoromethyl-pyridin-2-yl)-[1,3,5]triazine-2,4-diamine] has an IC50 [1] of less than 100 nM, an IC50 ([2]; Homo sapiens, U-87 MG) of less than 100 nM and an IC50 [3] of 100 to 1000 nM.
`CC(O)C(C)Nc1nc(Nc2ccnc(C(F)(F)F)c2)nc(-c2cccc(C(F)(F)F)n2)n1` (stereo not drawn) [Compound 548, 3-[4-(6-Trifluoromethyl-pyridin-2-yl)-6-(2-trifluoromethyl-pyridin-4-ylamino)-[1,3,5]triazin-2-ylamino]-butan-2-ol] gave an IC50 [1] of 100 to 1000 nM, an IC50 ([2]; Homo sapiens, U-87 MG) of less than 100 nM and an IC50 [3] of 100 to 1000 nM.
Compound `CC1(Nc2nc(Nc3ccnc(C(F)(F)F)c3)nc(-c3cccc(C(F)(F)F)n3)n2)COC1` [Compound 549, N-(3-Methyl-oxetan-3-yl)-6-(6-trifluoromethyl-pyridin-2-yl)-N′-(2-trifluoromethyl-pyridin-4-yl)-[1,3,5]triazine-2,4-diamine] has an IC50 [1] of less than 100 nM, an IC50 ([2]; Homo sapiens, U-87 MG) of less than 100 nM and an IC50 [3] of 100 to 1000 nM.
`CC1(CNc2nc(Nc3ccnc(C(F)(F)F)c3)nc(-c3cccc(C(F)(F)F)n3)n2)COC1` [Compound 550, N-(3-Methyl-oxetan-3-ylmethyl)-6-(6-trifluoromethyl-pyridin-2-yl)-N′-(2-trifluoromethyl-pyridin-4-yl)-[1,3,5]triazine-2,4-diamine] was tested, and the IC50 [1] was less than 100 nM, the IC50 ([2]; Homo sapiens, U-87 MG) was less than 100 nM and the IC50 [3] was 100 to 1000 nM.
Work on `CC(C)Nc1nc(Nc2ccnc(C(F)F)c2)nc(-c2cccc(C(F)(F)F)n2)n1` [Compound 551, N-(2-Difluoromethyl-pyridin-4-yl)-N′-isopropyl-6-(6-trifluoromethyl-pyridin-2-yl)-[1,3,5]triazine-2,4-diamine] yielded an IC50 [1] of less than 100 nM, an IC50 ([2]; Homo sapiens, U-87 MG) of less than 100 nM and an IC50 [3] of 100 to 1000 nM.
Work on `CC(CO)CNc1nc(Nc2ccnc(C(F)(F)F)c2)nc(-c2cccc(C(F)(F)F)n2)n1` (stereo not drawn) [Compound 552, 2-Methyl-3-[4-(6-trifluoromethyl-pyridin-2-yl)-6-(2-trifluoromethyl-pyridin-4-ylamino)-[1,3,5]triazin-2-ylamino]-propan-1-ol] yielded an IC50 [1] of 100 to 1000 nM, an IC50 ([2]; Homo sapiens, U-87 MG) of less than 100 nM and an IC50 [3] of 100 to 1000 nM.
With `CCCn1cc(Nc2nc(NC(C)C)nc(-c3cccc(C(F)(F)F)n3)n2)cn1` [Compound 555, N-Isopropyl-N′-(1-propyl-1H-pyrazol-4-yl)-6-(6-trifluoromethyl-pyridin-2-yl)-[1,3,5]triazine-2,4-diamine] the IC50 [1] was 1000 to 10000 nM, the IC50 ([2]; Homo sapiens, U-87 MG) was less than 100 nM and the IC50 [3] was 100 to 1000 nM.
Compound `FC(F)(F)c1cc(Nc2nc(NC3CC4CCC3O4)nc(-c3cccc(C(F)(F)F)n3)n2)ccn1` (stereo not drawn) [Compound 556, N-(7-Oxa-bicyclo[2.2.1]hept-2-yl)-6-(6-trifluoromethyl-pyridin-2-yl)-N′-(2-trifluoromethyl-pyridin-4-yl)-[1,3,5]triazine-2,4-diamine] has an IC50 [1] of less than 100 nM, an IC50 ([2]; Homo sapiens, U-87 MG) of less than 100 nM and an IC50 [3] of 100 to 1000 nM.
With `COC1(c2cc(Nc3nc(NC(C)C)nc(-c4cccc(C(F)(F)F)n4)n3)ccn2)CC1` [Compound 559, N-Isopropyl-N′-[2-(1-methoxy-cyclopropyl)-pyridin-4-yl]-6-(6-trifluoromethyl-pyridin-2-yl)-[1,3,5]triazine-2,4-diamine] the IC50 [1] was less than 100 nM, the IC50 ([2]; Homo sapiens, U-87 MG) was less than 100 nM and the IC50 [3] was 100 to 1000 nM.
`CC(C)(O)CNc1nc(Nc2cc(F)cc(F)c2)nc(-c2cccc(C(C)(F)F)n2)n1` [Compound 560, 1-[4-[6-(1,1-Difluoro-ethyl)-pyridin-2-yl]-6-(3,5-difluoro-phenylamino)-[1,3,5]triazin-2-ylamino]-2-methyl-propan-2-ol] showed an IC50 [1] of less than 100 nM, an IC50 ([2]; Homo sapiens, U-87 MG) of less than 100 nM and an IC50 [3] of 100 to 1000 nM.
`CC(C)Nc1nc(Nc2cc(Cl)cc(S(C)(=O)=O)c2)nc(-c2cccc(C(F)(F)F)n2)n1` [Compound 561, N-(3-Chloro-5-methanesulfonyl-phenyl)-N′-isopropyl-6-(6-trifluoromethyl-pyridin-2-yl)-[1,3,5]triazine-2,4-diamine] gave an IC50 [1] of less than 100 nM, an IC50 ([2]; Homo sapiens, U-87 MG) of less than 100 nM and an IC50 [3] of 100 to 1000 nM.
`CC(C)(CO)Nc1nc(Nc2ccnc(C(F)(F)F)c2)nc(-c2cccc(C(F)(F)F)n2)n1` [Compound 562, 2-Methyl-2-[4-(6-trifluoromethyl-pyridin-2-yl)-6-(2-trifluoromethyl-pyridin-4-ylamino)-[1,3,5]triazin-2-ylamino]-propan-1-ol] gave an IC50 [1] of less than 100 nM, an IC50 ([2]; Homo sapiens, U-87 MG) of less than 100 nM and an IC50 [3] of 100 to 1000 nM.
`CC(C)Nc1nc(Nc2ccnc(C3CC3)c2)nc(-c2cccc(C(F)(F)F)n2)n1` [Compound 563, N-(2-Cyclopropyl-pyridin-4-yl)-N′-isopropyl-6-(6-trifluoromethyl-pyridin-2-yl)-[1,3,5]triazine-2,4-diamine] gave an IC50 [1] of less than 100 nM, an IC50 ([2]; Homo sapiens, U-87 MG) of less than 100 nM and an IC50 [3] of 100 to 1000 nM.
With `CC(C)(C)Nc1nc(Nc2ccnc(C3CC3)c2)nc(-c2cccc(C(F)(F)F)n2)n1` [Compound 564, N-tert-Butyl-N′-(2-cyclopropyl-pyridin-4-yl)-6-(6-trifluoromethyl-pyridin-2-yl)-[1,3,5]triazine-2,4-diamine] the IC50 [1] was less than 100 nM, the IC50 ([2]; Homo sapiens, U-87 MG) was less than 100 nM and the IC50 [3] was 100 to 1000 nM.
Work on `CC1(Nc2nc(Nc3ccnc(C4CC4)c3)nc(-c3cccc(C(F)(F)F)n3)n2)CC1` [Compound 565, N-(2-Cyclopropyl-pyridin-4-yl)-N′-(1-methyl-cyclopropyl)-6-(6-trifluoromethyl-pyridin-2-yl)-[1,3,5]triazine-2,4-diamine] yielded an IC50 [1] of less than 100 nM, an IC50 ([2]; Homo sapiens, U-87 MG) of less than 100 nM and an IC50 [3] of 100 to 1000 nM.
With `CC(C)(C)Nc1nc(Nc2ccnc(C(C)(F)F)c2)nc(-c2cccc(C(F)(F)F)n2)n1` [Compound 567, N-tert-Butyl-N′-[2-(1,1-difluoro-ethyl)-pyridin-4-yl]-6-(6-trifluoromethyl-pyridin-2-yl)-[1,3,5]triazine-2,4-diamine] the IC50 [1] was less than 100 nM, the IC50 ([2]; Homo sapiens, U-87 MG) was less than 100 nM and the IC50 [3] was 100 to 1000 nM.
With `OC1CC1Nc1nc(Nc2ccnc(C(F)(F)F)c2)nc(-c2cccc(C(F)(F)F)n2)n1` (stereo not drawn) [Compound 568, 2-[4-(6-Trifluoromethyl-pyridin-2-yl)-6-(2-trifluoromethyl-pyridin-4-ylamino)-[1,3,5]triazin-2-ylamino]-cyclopropanol] the IC50 [1] was 100 to 1000 nM, the IC50 ([2]; Homo sapiens, U-87 MG) was less than 100 nM and the IC50 [3] was 100 to 1000 nM.
